Test results reported in the CheMixHub viscosity set.

Test: xn = mol fraction of the nth substance listed

Cc1ccccc1O + C1COCCO1
308.15 K, 101 kPa
Details | viscosity [mPa·s]
x2 = 0.1 | 4.947
x2 = 0.2 | 4.855
x2 = 0.3 | 4.267
x2 = 0.4 | 3.498
x2 = 0.5 | 2.795
x2 = 0.6 | 2.208
x2 = 0.7 | 1.764
x2 = 0.8 | 1.382
x2 = 0.9 | 1.163

C=CC(=O)OC + CCOCCOCCO
viscosity [mPa·s], 101 kPa
Details | 293.15 K | 298.15 K | 303.15 K | 308.15 K | 313.15 K | 318.15 K
x2 = 0.0702 | 0.594 | 0.558 | 0.5 | 0.469 | 0.447 | 0.428
x2 = 0.1404 | 0.695 | 0.65 | 0.607 | 0.572 | 0.539 | 0.507
x2 = 0.2131 | 0.826 | 0.767 | 0.715 | 0.671 | 0.624 | 0.589
x2 = 0.2822 | 0.95 | 0.877 | 0.813 | 0.756 | 0.705 | 0.659
x2 = 0.3597 | 1.133 | 1.038 | 0.955 | 0.884 | 0.82 | 0.762
x2 = 0.4297 | 1.346 | 1.226 | 1.109 | 1.019 | 0.941 | 0.872
x2 = 0.5002 | 1.574 | 1.428 | 1.288 | 1.171 | 1.076 | 0.992
x2 = 0.5703 | 1.835 | 1.648 | 1.479 | 1.355 | 1.236 | 1.125
x2 = 0.6412 | 2.109 | 1.904 | 1.715 | 1.547 | 1.405 | 1.286
x2 = 0.7172 | 2.478 | 2.199 | 1.976 | 1.782 | 1.605 | 1.457
x2 = 0.7906 | 2.868 | 2.529 | 2.247 | 2.017 | 1.819 | 1.656
x2 = 0.8598 | 3.295 | 2.893 | 2.534 | 2.279 | 2.031 | 1.836
x2 = 0.9184 | 3.692 | 3.212 | 2.788 | 2.508 | 2.226 | 2.016

O=C1CCCN1C1CCCCC1 + CO
298.15 K, 100 kPa
Details | viscosity [mPa·s]
x1 = 0.0094 | 0.589
x1 = 0.0192 | 0.625
x1 = 0.0288 | 0.657
x1 = 0.0387 | 0.69
x1 = 0.0495 | 0.727
x1 = 0.053 | 0.743
x1 = 0.067 | 0.804
x1 = 0.0764 | 0.832
x1 = 0.0858 | 0.866
x1 = 0.0883 | 0.874
x1 = 0.094 | 0.91
x1 = 0.191 | 1.366
x1 = 0.2811 | 1.92
x1 = 0.3806 | 2.649
x1 = 0.48 | 3.553
x1 = 0.5758 | 4.526
x1 = 0.6836 | 5.807
x1 = 0.7845 | 7.171
x1 = 0.8973 | 8.652
x1 = 0.9035 | 8.749
x1 = 0.9182 | 8.971
x1 = 0.9294 | 9.118
x1 = 0.9448 | 9.356
x1 = 0.9517 | 9.496
x1 = 0.965 | 9.7
x1 = 0.9749 | 9.843
x2 = 0.0157 | 10

C=CC(=O)OCCCC + CCCCCCCO
viscosity [mPa·s], 101.3 kPa
Details | x1 = 0.0538 | x1 = 0.1451 | x1 = 0.1979 | x1 = 0.2976 | x1 = 0.5964 | x1 = 0.6984 | x1 = 0.7966 | x1 = 0.8968 | x1 = 0.9498
298.15 K | 4.656 | 3.548 | 3.084 | 2.394 | 1.35 | 1.12 | 0.981 | 0.869 | 0.824
308.15 K | 3.481 | 2.761 | 2.398 | 1.922 | 1.084 | 0.925 | 0.836 | 0.736 | 0.705

C=CC(=O)OC + CCCCCCCCO
viscosity [mPa·s], 101.3 kPa
Details | x1 = 0.0847 | x1 = 0.2398 | x1 = 0.3089 | x1 = 0.4269 | x1 = 0.5391 | x1 = 0.7233 | x1 = 0.8011 | x1 = 0.8748 | x1 = 0.9408 | x1 = 0.9698
298.15 K | 5.555 | 3.533 | 2.795 | 1.948 | 1.353 | 0.857 | 0.692 | 0.566 | 0.506 | 0.47
308.15 K | 4.155 | 2.757 | 2.06 | 1.583 | 1.127 | 0.732 | 0.622 | 0.497 | 0.433 | 0.415

CN(C)CCO + CCCCn1cc[n+](C)c1.F[P-](F)(F)(F)(F)F
viscosity [mPa·s], 101 kPa
Details | x1 = 0.1221 | x1 = 0.2143 | x1 = 0.3182 | x1 = 0.4405 | x1 = 0.5166 | x1 = 0.605 | x1 = 0.709 | x1 = 0.8063 | x1 = 0.9128
293.15 K | – | – | 87.91 | 60.57 | 47.58 | 34.73 | – | – | 7.95
298.15 K | – | 88.45 | 66.23 | 45.68 | 36.09 | 27.08 | – | – | 6.67
303.15 K | – | 67.51 | 50.77 | 35.67 | 28.45 | – | – | – | 5.64
308.15 K | 67.28 | 52.1 | 39.24 | 27.9 | – | – | – | 7.99 | 4.78
313.15 K | 52.9 | 41.46 | 31.33 | – | – | – | 9.84 | 6.74 | 4.13
318.15 K | 42.39 | 33.36 | 25.47 | – | – | – | 8.35 | 5.74 | 3.59
323.15 K | 35.09 | 27.71 | – | – | – | 9.86 | 7.12 | 4.99 | 3.18

C=CC(=O)OC + CO
viscosity [mPa·s], 101.33 kPa
Details | 308.15 K | 318.15 K
x1 = 0.0546 | 0.464 | 0.419
x1 = 0.157 | 0.443 | 0.412
x1 = 0.2569 | 0.426 | 0.404
x1 = 0.3537 | 0.413 | 0.397
x1 = 0.453 | 0.403 | 0.388
x1 = 0.501 | 0.399 | 0.384
x1 = 0.5588 | 0.394 | 0.379
x1 = 0.655 | 0.39 | 0.369
x1 = 0.7566 | 0.387 | 0.359
x1 = 0.8561 | 0.387 | 0.349
x1 = 0.9556 | 0.389 | 0.338
